Laboratory results published in patent EP0783319B1, “MURAMYL PEPTIDE COMPOSITIONS FOR INHIBITING HIV REPLICATION” (VACSYN S.A., priority 1994, dated 1996).

Tests used:
HIV = conditions: in vitro, 1000 µg/ml; cited from earlier work
macrophages de cobayes = conditions: guinea pig macrophages; cited from earlier work
macrophages = assay: Macrophage proliferation in cultured donor monocytes (3H-thymidine incorporation); type: cell-based, humains; conditions: for inhibition de la prolifération des macrophages stimulées par la combinaison IL-3/GM-CSF / inhibition de la prolifération des macrophages stimulées par l'IL-3: 1 µg/ml, compound added one day before 3H-thymidine, 5-day culture; for inhibition de la prolifération des macrophages stimulées par la combinaison IL-3/GM-CSF: rh IL-3 + rh GM-CSF stimulated; for inhibition de la prolifération des macrophages stimulées par l'IL-3: rh IL-3 stimulated; for inhibition de la prolifération spontanée: no stimulation
Description: Pour cela, des monocytes prélevés chez un donneur sont mis en culture pendant 5 jours soit a) sans stimulation (afin d'évaluer leur niveau de prolifération spontanée) soit b) en présence d'interleukine 3 recombinante humaine (rh IL-3) soit c) en présence et de rh IL-3 et de rh GM-CSF "granulocyte-macrophage colony stimulating factor" recombinant humain. […] Les composés de l'invention sont ajoutés au milieu de culture un jour avant l'addition de thymidine tritiée (^3H-thymidine). Les cellules en voie de division incorporent cette thymidine. Les cellules (qui se sont différenciées en macrophages pendant la durée de la culture) sont recueillies et lavées, et on évalue le niveau de prolifération en mesurant dans un compteur beta, la quantité de ^3H incorporée suivant des méthodes classiques telles que décrites dans Blood, Vol. 76, pages 1490-1493, 1990.

VIH (HTLV III Ba-L) = assay: HIV replication in primary human monocyte cultures (viral protein P24 in supernatants, day 7); type: cell-based; conditions: P24 at day 7
Description: L'exemple 2 démontre l'effet du Murabutide et du Muramétide sur le niveau de réplication du VIH dans des cultures primaires de monocytes humains prélevés sur des volontaires sains. Des cultures monocytaires ont été infectées au jour 0 par une source VIH (HTLV III Ba-L) qui présente un tropisme pour les monocytes. Certaines cultures furent traitées par différentes concentrations des composés soit 1 jour avant, soit le même jour, soit 1 jour après l'inoculation par le VIH. La réplication du virus a été évaluée au jour 7 par la mesure de la quantité de protéine virale P24 dans les surnageants comme décrite dans Blood, Vol.76, page 1490-1493, 1990.

[1] = design: species or system homme; conditions: in vivo
Description: Des composés préférés pour l'utilisation selon l'invention sont le Murabutide (Nac-Mur-L-Ala-DGln OnC4H9) et le Muramétide (Nac-Mur-L-Ala-DGln OMe).

CC(=O)N[C@H]1C(O)O[C@H](CO)[C@@H](O)[C@@H]1O[C@H](C)C(=O)N[C@@H](C)C(=O)N[C@H](CCC(=O)O)C(N)=O (stereo partly drawn) [MDP, N-acétyl-muramyl-L-alanyl-D- Isoglutamine]
inhibition de la réplication de HIV (HIV): inhiber partiellement la réplication de HIV | inhibition de la prolifération des macrophages (macrophages de cobayes): inhiber la prolifération des macrophages de cobayes

CCCCOC(=O)[C@@H](CCC(N)=O)NC(=O)[C@H](C)NC(=O)[C@@H](C)O[C@H]1[C@H](O)[C@@H](CO)OC(O)[C@@H]1NC(C)=O (stereo partly drawn) [Murabutide, Nac-Mur-L-Ala-DGln OnC4H9]
inhibition de la prolifération des macrophages stimulées par la combinaison IL-3/GM-CSF (macrophages): inhiber la prolifération des macrophages | inhibition de la prolifération des macrophages stimulées par l'IL-3 (macrophages): inhiber la prolifération des macrophages | inhibition de la prolifération spontanée (macrophages; 10 µg/ml): inhibition de la prolifération spontanée a été observé | inhibition de la réplication virale (VIH (HTLV III Ba-L); 10 à 50 µg/ml, treatment on day -1, day 0 or day +1 relative to infection): inhibe complètement la réplication virale | effets secondaires [1]: dénuées d'effets secondaires | tolérance [1]: très bonne tolérance

COC(=O)[C@@H](CCC(N)=O)NC(=O)[C@H](C)NC(=O)[C@@H](C)O[C@H]1[C@H](O)[C@@H](CO)OC(O)[C@@H]1NC(C)=O (stereo partly drawn) [Muramétide, Nac-Mur-L-Ala-DGln OMe]
inhibition de la prolifération des macrophages stimulées par la combinaison IL-3/GM-CSF (macrophages): inhiber la prolifération des macrophages | inhibition de la prolifération des macrophages stimulées par l'IL-3 (macrophages): inhiber la prolifération des macrophages | inhibition de la prolifération spontanée (macrophages; 10 µg/ml): inhibition de la prolifération spontanée a été observé | inhibition de la prolifération spontanée (macrophages; 50 µg/ml): inhibition de la prolifération spontanée a été observé | inhibition at 50 µg/mL (VIH (HTLV III Ba-L); Human immunodeficiency virus 1, BAL, Monocyte, 168 h, 50 µg/ml, whatever the time of treatment (day -1, 0 or +1), read-out: suppression de la réplication virale): 100% | suppression de la réplication virale (VIH (HTLV III Ba-L); different concentrations, treatment day -1, 0 or +1): suppression hautement significative de la réplication virale | effets secondaires [1]: dénuées d'effets secondaires | tolérance [1]: très bonne tolérance
